Laboratory results as given in PubChem BioAssay AID2060894 (Molecular Pharmacology Branch, DTP, NCI, 2025).

Tested on: K12877-001-R-J1-PDC complex spheroid viability
Assay: Anticancer human tumor K12877-001-R-J1-PDC patient-derived lung adenocarcinoma cell line growth inhibition [RAS]
Settings: for IC50: curve of first compound; for viability, T/C: stronger effect = lower value
Procedure, shortened: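 Agents were tested in combination matrices in half-log decrements from a top concentration at or near clinical Cmax (10 microM if undetermined). Targets were multi-cell spheroids of tumour lines plus HUVEC and MSC stromal cells.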
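Note: spheroids exposed to agents for one week before readout.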
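Throughout, for viability, T/C: tumour cells co-cultured with HUVEC and mesenchymal stem cells in spheroids.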

IC50 (second compound 0.00316 µM): > 10 µM
IC50 (second compound 0.01 µM): > 10 µM
IC50 (second compound 0.0316 µM): > 10 µM
IC50 (second compound 0.1 µM): > 10 µM
IC50 (second compound 0.316 µM): > 10 µM
IC50 (second compound 1 µM): > 10 µM
Compound: C[C@@H](NC(=O)c1ncnc(N)c1Cl)c1ncc(C(=O)Nc2cc(C(F)(F)F)c(Cl)cn2)s1 + C=CC(=O)N1CCN(c2nc(OCC3CCCN3C)nc3c(F)c(-c4nc(N)cc(C)c4C(F)(F)F)c(Cl)cc23)C(C)C1
viability, T/C (second compound 0.00316 µM, first compound 0.0316 µM): 94.8%
viability, T/C (second compound 0.00316 µM, first compound 0.1 µM): 89.7%
viability, T/C (second compound 0.00316 µM, first compound 0.316 µM): 95.6%
viability, T/C (second compound 0.00316 µM, first compound 1 µM): 99.1%
viability, T/C (second compound 0.00316 µM, first compound 3.16 µM): 101%
viability, T/C (second compound 0.00316 µM, first compound 10 µM): 99.8%
viability, T/C (second compound 0.01 µM, first compound 0.0316 µM): 96.8%
viability, T/C (second compound 0.01 µM, first compound 0.1 µM): 82.5%
viability, T/C (second compound 0.01 µM, first compound 0.316 µM): 92.6%
viability, T/C (second compound 0.01 µM, first compound 1 µM): 92.9%
viability, T/C (second compound 0.01 µM, first compound 3.16 µM): 97.1%
viability, T/C (second compound 0.01 µM, first compound 10 µM): 85.4%
viability, T/C (second compound 0.0316 µM, first compound 0.0316 µM): 91%
viability, T/C (second compound 0.0316 µM, first compound 0.1 µM): 86.9%
viability, T/C (second compound 0.0316 µM, first compound 0.316 µM): 74.3%
viability, T/C (second compound 0.0316 µM, first compound 1 µM): 90.1%
viability, T/C (second compound 0.0316 µM, first compound 3.16 µM): 86.8%
viability, T/C (second compound 0.0316 µM, first compound 10 µM): 96.5%
viability, T/C (second compound 0.1 µM, first compound 0.0316 µM): 89.6%
viability, T/C (second compound 0.1 µM, first compound 0.1 µM): 83.5%
viability, T/C (second compound 0.1 µM, first compound 0.316 µM): 84.7%
viability, T/C (second compound 0.1 µM, first compound 1 µM): 90.4%
viability, T/C (second compound 0.1 µM, first compound 3.16 µM): 83.7%
viability, T/C (second compound 0.1 µM, first compound 10 µM): 85.2%
viability, T/C (second compound 0.316 µM, first compound 0.0316 µM): 81.4%
viability, T/C (second compound 0.316 µM, first compound 0.1 µM): 81.8%
viability, T/C (second compound 0.316 µM, first compound 0.316 µM): 77.1%
viability, T/C (second compound 0.316 µM, first compound 1 µM): 83.6%
viability, T/C (second compound 0.316 µM, first compound 3.16 µM): 83.1%
viability, T/C (second compound 0.316 µM, first compound 10 µM): 116%
viability, T/C (second compound 1 µM, first compound 0.0316 µM): 75%
viability, T/C (second compound 1 µM, first compound 0.1 µM): 75.8%
viability, T/C (second compound 1 µM, first compound 0.316 µM): 89.5%
viability, T/C (second compound 1 µM, first compound 1 µM): 92.5%
viability, T/C (second compound 1 µM, first compound 3.16 µM): 91.1%
viability, T/C (second compound 1 µM, first compound 10 µM): 113%
